Source: patent US20260325500A1, “METHODS AND COMPOSITIONS FOR TREATING ACUTE STRESS DISORDER” (BioXcel Therapeutics, Inc., priority 2022, published 2026)
Counter-ions that a name gives are not always drawn. Marks after values point to notes of the source that are not given here.

Columns and labels:
[1] = test system: CCK-4 induced panic anxiety in rats; assay: Elevated plus maze, CCK-4 induced panic anxiety (Example 8); format: in vivo, Wistar rats; settings: diazepam 1 mg/kg; CCK4 0.2 mg/kg i.p.
Source text: Rationale: In the past two decades panic induction with cholecystokinin-tetrapeptide (CCK-4) as an experimental model of human anxiety has become a focus of intensive research. CCK-4 is a synthetic analog of the endogenous neuropeptide cholecystokinin (CCK), which has been found in different brain regions. Particularly, high concentrations of CCK have been detected in regions that have been implicated in the mediation of panic attacks such as the cerebral cortex, amygdala, hippocampus, and brainstem nuclei. CCK-4 dose dependently induces panic attacks in healthy controls. Thus, CCK-4 has been postulated to fulfil the criteria for an ideal and valid panicogenic agent. […] Therefore, the CCK-4 challenge paradigm can serve as a useful tool to evaluate the anti-panic potential of novel anxiolytic compounds.
Animal groups: Male Wistar Rats were purchased at a body weight of 150 g and reached a body weight of about 220 g at the time of use. Animals were distributed in 6 different experimental groups with 12 […] per group as illustrated in Table 11. Each experimental group was also coded so that the experimenter became unaware of the true experimental group at the time EPM trial.
Study drugs: All compounds/drugs were prepared in saline (0.9% NaCl).
CCK-4 was prepared at a solution of 0.2 mg/ml which when injected i.p. at a dosage volume of 1 ml/kg results in a dose of 0.2 mg/kg.
Diazepam was prepared at a solution of 1 mg/ml which when injected i.p. at a dosage volume of 1 ml/kg results in a dose of 1 mg/kg.
Latrepirdine was prepared at concentrations of 2.5, 7.5, 25 and 37.5 mg/ml which when injected i.m. at a volume of 100 μL for a rat of 250 g results in doses of 1, 3, 10 and 15 mg/kg respectively.
Study design and dosing: The rats were randomly assigned to one of the different experimental groups. Each animal was identified by its group name, cage number, series (day) of experiment, and a number (from 1 to 4) written with permanent ink on its tail. They were handled by an experimenter for about 3 min each day during 1 week prior to the day of EPM trial.
The apparatus is a PVC maze covered with Plexiglas and subdivided into four equal exploratory arms (40×10 cm), which are all interconnected by a small platform (10×10 cm). The apparatus is placed 65 cm above the floor. Two arms are opened, and two others are closed with wall (high: 10 cm).
After compound administration, rat is placed on the platform opposite a closed arm. The number of entries and the time spent in each arm are recorded during a 5 min period. The animal is considered as entered in an arm when it places its four paws in the arm.
Statistical analysis: Data was analyzed using One-Way ANOVA followed by multiple comparison with Dunnett's post-hoc test. All statistical analyses were performed using GraphPad Prism software package (Version 9) and p value below 0.05 was considered as significant.

[2] = test system: Yohimbine-induced noradrenergic hyperarousal in Wistar rats; assay: Elevated plus maze, yohimbine-induced noradrenergic hyperarousal, dose response (Example 3); format: in vivo; settings: 30 min
Source text: Background: Yohimbine is an alpha 2-adrenergic receptor antagonist reported to trigger panic attacks in healthy volunteers and to exacerbate symptoms in patients with panic disorder (Charney et al., 1992 Acta Psychiatr Scand., Vol. 86 (4): 273-282). Peripheral administration of Yohimbine causes noradrenergic mediated hyperarousal in rats as assessed by the EPM paradigm.
Rationale: The drug yohimbine is a natural product used to test a specific pathway, noradrenergic-mediated hyper-arousal. It is well established that yohimbine is an alpha2-adrenergic receptor antagonist and activates the locus coeruleus (LC) and increases noradrenergic signaling (the opposite of alpha2-adrenergic agonists like dexmedetomidine and clonidine). Increased LC activity and noradrenergic signaling makes animals anxious and agitated which can be measured by using the elevated plus maze. In the elevated plus maze, rodents were in the closed arms and explored the open arms depending on their anxiety and agitation (rats and mice normally explore their environments extensively when calm). […] This behavior is correlated to increased level of anxiety caused by noradrenergic mediated hyperarousal.
Animal groups: Rats were distributed in 9 different experimental groups with 12 […] per group as illustrated in Table 6. Each experimental group was also coded so that the experimenter became unaware of the true experimental group at the time EPM trial.
Acclimatization: Male Wistar rats (Janvier; Le Genest St Isle-France) were used for the study. They were purchased at a body weight of 150 g and reached a body weight of about 220 g at the time of use. They were group-housed (3-4 rats per cage) and maintained in a room with controlled temperature (21-22° C.) and a reversed light-dark cycle (12 h/12 h; lights on: 17:30-05:30; lights off: 05:30-17:30).
Drug preparation: All compounds/drugs were prepared in normal saline (0.9% NaCl).
Yohimbine was prepared at a solution of 2.5 mg/mL which when injected i.p. at a dosage volume of 1 mL/kg results in a dose of 2.5 mg/kg. Diazepam was prepared at a solution of 1 mg/mL which when injected i.p. at a dosage volume of 1 mL/kg results in a dose of 1 mg/kg. Latrepirdine dihydrochloride hydrate was prepared at a solution of 7.5, 2.5, 0.75 and 0.25 mg/mL which when injected i.m. at a volume of 100 μL for a rat of 250 g results in doses of 3; 1; 0.3 and 0.1 mg/kg; respectively. Latrepirdine dihydrochloride hydrate was also prepared at […] which when administrated i.p. at a dosage volume of 1 mL/kg results in a dose of 3 mg/kg.
Experimental procedure: The rats were randomly assigned to one of the different experimental groups. Each animal was identified by its group name, cage number, series (day) of experiment, and a number (from 1 to 9) written with permanent ink on its tail. They were handled by an experimenter for about 3 min each day during 1 week prior to the day of EPM trial. The apparatus was a PVC maze covered with Plexiglas and subdivided into four equal exploratory arms (40×10 cm), which were all interconnected by a small platform (10×10 cm). The apparatus was placed 65 cm above the floor. Two arms were opened, and two others were closed with wall (high: 10 cm). After compound administration, rat was placed on the platform opposite a closed arm. The number of entries and the time spent in each arm were recorded during a 5 min period. The animal was considered as entered in an arm when it placed its four paws in the arm. The apparatus was cleaned between each animal using alcohol (70%). Urine and feces were removed from the maze. During the trials, animal handling and the visibility of the operator were minimized as much as possible.
Statistical analysis: Analysis of variance (ANOVA) was performed on the result data. Fisher's PLSD was used for pairwise comparisons and p value≤0.05 were considered significant. […]

[3] = test system: rat forced swim test model (depressive-like behavior); assay: Forced swim test in dark phase (Example 4); format: in vivo, Sprague Dawley rats; settings: 30 mg/kg, p.o.; versus vehicle saline, 5 minutes observation
Source text: Animal groups: Male Sprague Dawley (SD) rats (8-10 weeks old) were grouped housed 2 per cage in standard animal cages with facilities for pelleted food and drinking water in polycarbonate bottle with stainless steel sipper tubes. During the experimental period, animals were housed in a single experimental room. Rats were distributed in 7 different experimental groups with 9-12 rats per group as illustrated in Table 8. Animals were distributed to different groups based on body weight data. Each experimental group was also coded so that the experimenter became unaware of the true experimental group at the time FST trial.
Animals were housed in an environment-controlled room at 22±3° C. and relative humidity of 30 to 70 percent. During the study, 12/12 light/dark cycles were maintained. Lights of the acclimatization area were switched off at 06:00 PM. All experiments were carried out at ambient temperature under dark phase of lighting (between 06:00 PM to 06:00 AM). Adequate fresh air supply of 12-15 air changes/hour was maintained in the experimental room. The maximum and minimum temperature and relative humidity in the experimental rooms was recorded once daily. The relative humidity in the experimental room was calculated daily from dry and wet bulb temperature recordings.
Swim 1 was carried out between 18:30 to 21:30.
Swim 2 was carried out between 19:30 to 21:30. Animals were administered test compounds from 18:30 onwards in staggered manner 60 minutes before FST 2.
Forced swim test was carried out in dark phase
On Day 1, animals were subjected to forced swim test training for 15 minutes (Swim 1) and on Day 2, Swim 2 was carried out post treatment.
On day 2 animals were dosed with respective treatment 60 min prior to performing FST.
Forced swim test (Swim 2) was scored manually with no video recording.
Forced swim test (FST), was used to study the depressive-like behavior in rodents. The test was carried out in transparent cylindrical glass containers measuring 46 cm in height and 20 cm in diameter.
There were 2 swim sessions, 24 h apart. The first session, Swim 1 was the pretest/training stage (15 min) and the second session, Swim 2, was the test stage (8 min).
In swim 2, first 1-minute data was excluded from analysis and rest 7 minutes data was considered. In 7 minutes, data, it was divided 5 minutes and 2 minute.
Twenty-four hours after the start of Swim 1, the test swim (Swim 2) was carried out.
Rat was placed in the water-filled cylinder for 8 min (Swim 2).
The duration of time spent immobile, swimming, and climbing was observed by an observer blind to the treatment group.
Immobility period: A rat was judged to be immobile when it remained floating in the water without struggling and was making only those movements necessary to keep its head above water.
Statistical analysis: One Way ANOVA, Dunnet's multiple comparison test was applied with respect to vehicle saline and Tukey's multiple comparison test was applied to compare the data in between the groups using GraphPad Prism version 9 software.

[4] = test system: mouse behavior (SmartCube signature); assay: SmartCube system behavioral classification (Example 6); format: in vivo, Male C57/B16 mice; settings: IP
Source text: Dexmedetomidine and latrepirdine have anti-psychotic effects, when tested in the SmartCube® system (Psychogenics, Inc., Paramus, NJ; See also U.S. Pat. No. 7,580,798 incorporated herein by reference in its entirety). This system uses features derived from mouse behavioral data to first, classify mice on compound versus vehicle. This measure indicates how well the system can differentiate between a mouse on compound versus a mouse on vehicle. Secondly, by comparing the features to a proprietary reference database of behavioral feature sets that are linked to classes of marketed drugs known to treat neuro-psychiatric symptoms SmartCube® assigns a signature to the behavior. Thus, the system can be used as a model to identify both the activity and the psychiatric effect of a compound by comparing the effects of the compounds against drugs with known validated effects.
By comparing the responses of animals to known drugs, the test drug can be categorized according to its function; for example, hallucinogen, anxiogenic, analgesic, cognitive enhancer, psychostimulant, mood stabilizer, high dose anti-psychotic, anti-psychotic, sedative/hypnotic, anxiolytic, high dose antidepressant, antidepressant.
Once all features are extracted from the raw data through an automated pipeline, proprietary bioinformatics algorithms are used to decorrelate groups of features and find the combination of values that best separate different groups of interest. For each compound, at each dose, they system provides a probability that the drug is active and breaks down such putative activity into the different classes of interest.
SmartCube reference data used herein include anti-psychotics and anti-depressants tested at several dose ranges. “Anti-psychotic” versus “high dose anti-psychotic” as indicated in the legend, reflects the notion that anti-psychotics reference data is dose dependent. Anti-psychotics, when administered at higher doses, can engage additional receptor systems, and thus affect mouse behavior differently. The same applies for different doses of anti-depressants.
Animals: Male C57/B16 mice (N=12 per group) from Taconic Laboratories were used. Upon receipt, mice were group-housed in OPTI mouse ventilated cages with 4 mice per cage. Mice were acclimated to the colony room for at least one week prior to test and subsequently tested at approximately 8-9 weeks of age. All animals were examined, handled, and weighed prior to initiation of the study to assure adequate health and suitability and to minimize non-specific stress associated with manipulation.
All compounds tested were formulated in NP3 (vehicle solution): 5% Pharmasolve; 30% P3 (1:1:1 PEG200: PEG400: propylene glycol); 65% saline; pH is 5.1-6.
Test groups were: • Vehicle: NP3 • Dexmedetomidine at 0.005 and 0.010 mg/kg • Latrepirdine at 1 and 10 mg/kg • Dexmedetomidine and latrepirdine combinations (in mg/kg): 0.005/1.0; 0.005/10; 0.010/1.0; 0.010/10
Test compounds were injected intraperitoneally (IP) for 15 min before animals were placed in SmartCube for assessment.
Antipsychotic: SmartCube classifies the mouse behavior with test compound as similar to treatment with marketed anti-psychotics at therapeutically relevant doses.
High Dose Antipsychotic: SmartCube classifies the mouse behavior on test compound as similar to treatment with marketed anti-psychotics at doses that are considered as high therapeutically. High doses of anti-psychotics often cause sedation.
The results for the class analyses are presented as standardized bar charts with percentages that sum to 100 for each dose. The percentage indicates the probability the classifier can differentiate between the vehicle group and test group. The pattern indicates what class signature was assigned.

[5] = diazepam 1 mg/kg, i.p., yohimbine hydrochloride 2.5 mg/kg i.p.

**Q.** CN1C(=O)CN=C(c2ccccc2)c2cc(Cl)ccc21 [Diazepam] was tested. Which “Entries, % increase as compared to CCK-4/Vehicle” value [1] did it give?
**A.** Its value is “(400.00) **** %”.

**Q.** And the “Entries, Mean ± SEM” value [1]?
**A.** Its value is 9.5±0.5 n.

**Q.** And the “Time, % increase as compared to CCK-4/Vehicle” value [1]?
**A.** The value was “(652.27) **** %”.

**Q.** What about the “Time, Mean ± SEM” value [1] of the same compound?
**A.** Its value is 99.3 ± 3.8 s.

**Q.** What about the “Percent increase as referred to the Vehicle level, Entries” value [2, 5] of the same compound?
**A.** Its value is 294%.

**Q.** And the “Percent increase as referred to the Vehicle level, Time” value [2, 5]?
**A.** The value was 642%.

**Q.** With CNCCCN1c2ccccc2CCc2ccccc21 [desipramine hydrochloride] as the compound, how does the climbing time [3] read?
**A.** The climbing time was “increase”.

**Q.** And the immobility time [3]?
**A.** The immobility time was “significant decrease”.

**Q.** And the swimming time [3]?
**A.** Its swimming time is “failed to show any significant effect”.

**Q.** With Cc1cccc([C@H](C)c2cnc[nH]2)c1C [dexmedetomidine, (+) 4-(S)-[1-(2,3-dimethylphenyl)ethyl]-1H-imidazole] as the compound, how does the SmartCube signature ([4]; 0.005 and 0.010 mg/kg) read?
**A.** Its SmartCube signature is “antipsychotic signature”.

**Q.** And the SmartCube total activity ([4]; dexmedetomidine 0.005 mg/kg)?
**A.** The SmartCube total activity was 9%.

**Q.** And the SmartCube total activity ([4]; dexmedetomidine 0.010 mg/kg)?
**A.** Its SmartCube total activity is 40%.

**Q.** Which “number of visits to and time spent into the open arms versus vehicle-treated saline rats” value ([2]; yohimbine 2.5 mg/kg i.p.) does the source give for COC(=O)[C@@H]1[C@H]2C[C@H]3c4[nH]c5ccccc5c4CCN3C[C@@H]2CC[C@@H]1O [yohimbine] here?
**A.** Its value is “marked significant decrease”.
